The test system of one series is Erwinia amylovora Ea110. Kind of series: Measurement of bacterial growth inhibition / MIC in LB broth. The format is cell-based. As for the experimental part:
The highly-virulent strain E. amylovora Ea110, which was isolated from an apple orchard in Michigan (Zhao et al., 2005), was used in this study. Bacterial strains were stored at −80° C. in 15% glycerol and cultured in Luria-Bertani (LB) medium at 28° C. PNA-CPP was synthesized using Bts oligomerization method by Panagene Inc (Daejeon, Korea). Streptomycin and PNA-CPP were implemented at rates indicated in each assay.
Erwinia amylovora Ea110 was cultured in LB broth overnight and then cell concentrations were adjusted to 5×10^5 CFU/ml in LB broth. A total of 80 μl of the bacterial suspension in LB was added into each well of a 96 well plate. Lyophilized PNA-CPP was resuspended in water to a stock concentration of 100 μM and was serial diluted. Twenty μl of the diluted PNA-CPP solution was added into each well that contained 80 μl of the bacterial suspension in LB to make the final concentrations indicated in each assay. Water and streptomycin were added to the wells as negative and positive controls. The plate was incubated at 28° C. with orbital shaking in a BioTek Synergy H1 microplate reader (BioTek, Winooski, Vt., USA) for 20 hr. During the incubation, the OD 600 of each well was measured every 10 min. The lowest concentration of a PNA-CPP that prevented growth after 20 hr represented the MIC. Three replicates were included in each testing, and the experiment was repeated twice.

Another series deals with acpP mRNA. Kind of series: Northern blot detection of acpP expression in treated cells. The format is cell-based, Erwinia amylovora. The settings on record: streptomycin 1 μM and 3 μM, 15.5 hrs post inoculation. As for the experimental part:
E. amylovora Ea110 was inoculated into LB broth at the final concentration of 5×10^5 CFU/ml, and was treated with various concentrations of PNA-CPP, water, or streptomycin. The inoculated cells were incubated at 28° C. with orbital shaking, and were collected for RNA isolation at 15.5 hrs post inoculation. Total bacterial RNA was isolated using the RNeasy Protect Bacteria Mini Kit (Qiagen, Valencia, Calif., USA) following the manufacturer's instructions. The quality and quantity of RNA was measured with a Nanodrop 2000c (Thermo Scientific, Wilmington, Del., USA).
The probe for acpP detection in Northern blots was synthesized from polymerase chain reaction (PCR) using acpP primers (forward primer 5′-TGGGCGTTAAGCAGGAAGAAG-3′ (SEQ ID NO: 5) and reverse primer 5′-TACGCCTGGTGACCATTGAT (SEQ ID NO: 6)). The PCR product was purified using a QIAquick PCR Purification kit (Qiagen) and labelled using a Biotin DecaLabel DNA Labeling Kit (Thermo Fisher Scientific, Grand Island, N.Y.) as per instruction of kit manual. Thirty micrograms of RNA was loaded for each sample and was separated on a formaldehyde denaturing gel in MOPS buffer. BrightStar®-Plus positively-charged nylon membranes (Thermo Fisher Scientific) were used for transfer of RNA from gel to membrane. […] The biotin signal was detected using a Biotin Chromogenic Detection Kit (Thermo Fisher Scientific).

The test system of series [1] is apple flower-associated bacteria. Nature of the series: Susceptibility of apple flower-associated bacteria and biocontrol strains (panel). The format is cell-based. As to conditions: streptomycin 20 μM. As for the experimental part: Fifty flowers were collected from apple trees Malus×domestica ‘McIntosh’ from the Hamden, Conn. Lockwood farm in May 2016. The stigmas from all 50 flowers were removed, placed into 3 ml of 0.5×PBS, vortexed for 20 seconds, and sonicated for 5 min in a water bath sonicator to release the stigma associated bacteria. PBS buffer containing bacteria cells was serially diluted (10×, 100× and 1000×) and plated on LB agar medium and incubated at 28° C. for 48 h. On the basis of morphological colony characteristics, 200 bacterial colonies were shortlisted, sub-cultured, and identified using 16s rDNA sequencing using the forward primer 63f (5′-CAGGCCTAACACATGCAAGTC-3′) (SEQ ID NO: 10) and reverse primer 1387r (5′-GGG CGG WGT GTA CAA GGC-3′) (SEQ ID NO: 11). Fifteen different species were selected from the 200 bacterial cultures for testing against anti-acpP-CPP1 and streptomycin. Biological control agents Pseudomonas fluorescence A506, Bacillus amyloliquefaciens D747 and Pantoea agglomerans E325 were isolated from the original products on LB agar plate.
Compared to the traditional antibiotics that kill microbes with little selection, antisense antimicrobials inhibit bacterial growth through a sequence specific manner. […] Two hundred bacterial colonies were subcultured, and the identities of these colonies were determined by 16S rDNA sequencing. […]

With `[H]/N=C(/N)N[C@H]1[C@H](O)[C@@H](O)[C@H](O[C@@H]2O[C@@H](C)[C@](O)(C=O)[C@H]2O[C@@H]2O[C@@H](CO)[C@H](O)[C@@H](O)[C@@H]2NC)[C@@H](N/C(N)=N\[H])[C@@H]1O` [streptomycin], in the series on Erwinia amylovora Ea110 (Erwinia amylovora, E. amylovora Ea110, LB broth, 28° C., 20 hr, read-out: minimal inhibitory concentration (MIC)), the MIC is 2 µM. The “acpP mRNA abundance” value with acpP mRNA is given as “did not affect”. The “susceptibility of strains tested” value in series [1] is “All strains tested are susceptible to streptomycin with the exception of P. fluorescens A506”.

As for “anti-acpP PNA: 10-nucleotide PNA oligomer 5′-ctcatactat-3′ (SEQ ID NO: 1), antisense to start codon region of acpP, no CPP (CTCATACTAT; all peptide nucleic acid (PNA))”, the “growth inhibition of E. amylovora” value in the series with Erwinia amylovora Ea110 (LB broth, any concentration tested, compared to water) was “did not display any growth inhibition”.

The record behind these values is patent publication US20180235210A1, “ANTISENSE COMPOSITIONS TARGETING ERWINIA SPECIES AND METHODS OF USING THE SAME” (priority 2017, published 2018).
